Laboratory results taken from publication PMC5537347, “A short D-enantiomeric antimicrobial peptide with potent immunomodulatory and antibiofilm activity against multidrug-resistant Pseudomonas aeruginosa and Acinetobacter baumannii” (Scientific Reports, 2017).
Like-named read-outs stand apart in the source and are kept apart here.

Columns and labels:
P. aeruginosa = format: cell-based
[1] = system: P. aeruginosa and A. baumannii isolates
From the text: (§1) The broth microdilution technique was utilized to assess the MIC of designed peptides according to the guidelines of the Clinical and Laboratory Standards Institute (CLSI)[37].

[2] = system: colistin-resistant P. aeruginosa isolated from cystic fibrosis patients
From the text: as §1

[3] = system: P. aeruginosa PAO1 biofilm; assay: Disruption of established biofilms, microtiter dish crystal violet assay; format: cell-based; conditions: mature (24 hour) biofilm, 24 hours at 37 °C, crystal violet OD 595 nm
Method: Figure 1 Efficacy of peptides on established biofilms of P. aeruginosa PAO1 and A. baumannii ATCC BAA-1605. […] After incubation, wells were washed and biofilms were stained with 0.5% (w/v) crystal violet for 30 minutes. The dye was solubilized with ethanol (95%) and the optical density (595 nm) of the biofilm mass was measured. Experiments were repeated twice independently and the average values are reported.
To examine the peptides’ ability to disrupt bacterial biofilms, the microtiter dish biofilm formation assay was employed[41]–[43].

[4] = system: LPS-induced activation of the LAL enzyme (Limulus amoebocyte lysate); assay: Binding of peptides to lipopolysaccharide (LAL assay); format: biochemical; conditions: one EU of LPS, 37 °C, 30 minutes
Method: (§2) Figure 3 Ability of peptides to neutralize LPS and reduce inflammatory cytokines expression. (A) LPS binding activity of peptides. Peptides at different concentrations were incubated with one endotoxin unit (EU) of LPS at 37 °C for 30 minutes. […] The binding of peptides with LPS is expressed as percent change relative to the untreated samples. (B) Anti-inflammatory effect of peptides on LPS-stimulated macrophages. J774A.1 cells were stimulated with LPS (150 ng/mL final concentration) in the presence of different concentrations of peptides. Cells stimulated with LPS alone and untreated cells served as controls. Cells were incubated for six hours at 37 °C before the supernatant from each treatment group was collected. Detection of tumor necrosis factor-α (TNF-α) and interleukin-6 (IL-6) in supernatants was determined using ELISA. Cytokine levels are expressed as percent change relative to the LPS-stimulated control. Statistical analysis was calculated using one-way ANOVA, with post hoc Tukey’s multiple comparisons test. P < 0.05 was considered significant. One asterisk (*) indicates significant difference with the negative control.
To determine the peptides’ ability to bind to LPS, a Limulus amoebocyte lysate (LAL) kit (Genscript, USA Inc.) was utilized, as described in previous reports. The peptides were dissolved in pyrogen-free water and serially diluted in the same solvent. The peptides were then incubated with one endotoxin unit (EU) of LPS at 37 °C for 30 minutes in order to permit the peptides to bind LPS. The reaction mixture (50 μL) was added to 50 μL of LAL reagent, and further incubated for 10 minutes. Next, 100 μL of LAL chromogenic substrate was added. The mixture was incubated at 37 °C for six minutes. The optical density (at 545 nm) was determined using a microplate reader. Colistin was used as a positive control. The binding of peptides with LPS was expressed as the percent change relative to the untreated control.

IL-6 = assay: Anti-inflammatory effect on LPS-stimulated macrophages, ELISA; format: cell-based, murine; conditions: J774A.1 cells, LPS 150 ng/mL, six hours
Method: as §2
(§3) To assess the anti-inflammatory effect of our peptides on LPS-stimulated macrophages, J774A.1 cells were seeded and incubated as described above (for toxicity assessment). Next, the cells were stimulated with LPS (150 ng/ml final concentration) in the presence of different concentrations of peptides (RR and D-RR4). Cells stimulated with LPS alone and untreated cells served as controls. Cells were incubated for six hours at 37 °C and the supernatant from each treatment was collected and stored at −20 °C until use. Tumor necrosis factor-α (TNF-α) and interleukin-6 (IL-6) present in the supernatant was quantified using ELISA, as described previously. Cytokine levels were presented as the percent change relative to the LPS-stimulated control, using triplicate samples for each treatment condition.

TNF-α = assay: as above; format: cell-based, murine; conditions: J774A.1 cells, LPS 150 ng/mL, six hours
Method: as §2, §3

[5] = system: A. baumannii ATCC BAA-1605; assay: C. elegans infection model (bacterial burden and survival); format: in vivo, Caenorhabditis elegans; conditions: 8 × MIC
Method: (§4) (A) Evaluation of toxicity of peptides in Caenorhabditis elegans. C. elegans strain glp-4;sek 1 was grown for four days in the presence of peptides at different concentrations. Worms were monitored daily and the live worms were counted. Results are expressed as a Kaplan-Meier survival curve. (B) Evaluation of antimicrobial activity of peptides to reduce the bacterial CFU inside infected Caenorhabditis elegans. […] After treatment, worms were lysed and bacteria were counted. […] Results are expressed as means from three biological replicates ± standard deviation. (C) Efficacy of peptides in a Caenorhabditis elegans model of bacterial infection. […] Worms were monitored daily and the live worms were counted. Results are expressed as a Kaplan-Meier survival curve. C. elegans receiving no treatment served as a negative control.
(§5) Infection and treatment of C. elegans was done, as described previously, with the following modifications, [53], [54]. […] After infection, worms were collected and washed with PBS three times. Worms (~30 per sample) were transferred either to microcentrifuge tubes (for survival assessment) or 96-well plates (for bacterial CFU determination). […] Untreated worms served as a negative control. To assess the survival of infected C. elegans, worms were assessed for viability (live worms are sinusoidal with movement, whereas dead worms are rigid rods). In order to assess the bacterial load in worms, worms were first washed three times with PBS. They were subsequently lysed by addition of 200 mg of 1.0-mm silicon carbide particles (Biospec Products, Bartlesville, OK) to each tube and vortexing for one minute. Bacteria were plated onto TSA plates containing 100 µg/ml ampicillin to permit the selective growth of P. aeruginosa and A. baumannii over Escherichia coli OP50.

P. aeruginosa PAO1 = assay: as above; format: in vivo, Caenorhabditis elegans; conditions: 8 × MIC
Method: as §4, §5

[6] = system: colistin-resistant P. aeruginosa 1109; assay: as above; format: in vivo, Caenorhabditis elegans
Method: as §4, §5

Colistin [reference compound]
MIC (P. aeruginosa; strain ATCC 9027): 0.25 µM
MIC (P. aeruginosa; strain ATCC 9721): 0.5 µM
MIC (P. aeruginosa; strain ATCC 10145): 0.5 µM
MIC (P. aeruginosa; strain ATCC 15442): 0.25 µM
MIC (P. aeruginosa; strain ATCC 25619): 0.25 µM
MIC (P. aeruginosa; strain ATCC 27853): 0.25 µM
MIC (P. aeruginosa; strain ATCC 35032): 0.5 µM
MIC (P. aeruginosa; strain ATCC BAA-1744): 0.5 µM
MIC (P. aeruginosa; strain PAO1): 0.5 µM
MIC50 ([1]; MIC that inhibited growth of 50% of all isolates (Table 2)): 0.25 µM
MIC90 ([1]; MIC that inhibited growth of 90% of all isolates (Table 2)): 0.5 µM
MIC ([2]; strain 1125): 32 µM
MIC ([2]; strain 1131): 64 µM
MIC ([2]; strain 1133): 32 µM
MIC ([2]; strain 1603): 64 µM
biofilm mass disrupted ([3]; 4 × MIC): more than 10%
biofilm mass disrupted ([3]; 8 × MIC): > 25%
biofilm mass disrupted ([3]; 16 × MIC): > 28%
biofilm mass disrupted ([3]; 32 × MIC): > 75%
inhibition of LPS-induced activation of the LAL enzyme ([4]; 5 µM peptide): 51.2%
inhibition of LPS-induced activation of the LAL enzyme ([4]; 10 µM peptide): 83.0%
inhibition of LPS-induced activation of the LAL enzyme ([4]; 15 µM peptide): Complete inhibition
inhibition of LPS-induced activation of the LAL enzyme ([4]; 20 µM peptide): Complete inhibition
decrease of IL-6 production (IL-6; 10 µM): > 95%
decrease of IL-6 production (IL-6; 20 µM): > 95%
decrease of TNF-α production (TNF-α; 10 µM): > 95%
decrease of TNF-α production (TNF-α; 20 µM): > 95%
reduction of bacterial burden (CFU) in infected worms [5]: 96%
worms remaining alive ([5]; 36 hours): remained alive
worms remaining alive ([5]; after 72 hours): 80–85%
reduction of bacterial burden (CFU) in infected worms (P. aeruginosa PAO1): 89%
protection of infected worms (survival) (P. aeruginosa PAO1; 24 and 36 hours): nearly complete protection
protection of infected worms (survival) ([6]; D-RR4 8 × MIC, colistin 1 × MIC, after 24 hours): failed to protect worms from death
reduction of bacterial burden (CFU) in infected worms ([6]; in vivo): unable to significantly decrease bacterial burden
